# Test results as given in paper PMC12867150, “A fungi-derived cyclic peptide enhances Th9-mediated antitumor immunity by targeting ZAP70 and SREBP1” (The Journal of Clinical Investigation, 2025).
# Tested on: human Th9 CAR T cells
# Experiment: CAR lentivirus infection efficiency, GFP (S9C)
# Type: cell-based
# Settings: representative flow plot, Figure S9C
# Description: Ct EpA Fat Fat Ct EpA Fat Fat
# (A) Flow-cytometric analysis of intracellular IL-9 expression in human Th9 cells […]
# (B) Flow-cytometric assessment of mitochondrial mass using Mito Tracker in human Th9 cells treated as in (A) (n = 3).
# (C) Flow-cytometric analysis of infection efficiency in Th9 cells transduced with a CD19-directed CAR lentivirus. (D and E) Flow-cytometric analysis of IL-9 expression in human Th9 CAR-T cells on days 5 and 6 of in vitro differentiation, showing representative plots (D) and quantification (E) (n = 3). (F) Measurement of intracellular ATP levels normalized to cell number in human Th9 CAR-T c e l l s (n =5).
# (G) Flow-cytometric analysis of mitochondrial mass using Mito Tracker in human Th9 CAR-T c e l l s (n = 3). (H and I) Flow-cytometric analysis of granzyme B⁺ CAR-Th9 cells isolated from spleens after adoptive transfer, showing representative plots (H) and quantification (I) (n = 5 mice per group). Statistical analysis was performed using one-way ANOVA with Tukey’s post hoc test (A and B), or two-tailed unpaired Student’s t-test (E–G, and I). Repeated data are presented as mean ± SEM. *p < 0.05, […]
substance,measurement,value
anteiso-C15 Leu7 surfactin [EpA],GFP gate number (infection efficiency),47.8
